A short description of the data set: log P by HPLC. The class given is physicochemical.
Setting [1] is: HPLC, gradient method, acetonitrile/0.1% aqueous phosphoric acid, EEC directive 79/831 Annex V. A8.
The mark [2] stands for this setting: EEC directive 79/831 Annex V. A8 by HPLC (gradient method, acetonitrile/0.1% aqueous phosphoric acid).

logP data for 54 compounds are collected here from patent US7186831B2, “5-halo-2-alkyl[1,2,4]triazolo[1,5-a]pyrimidin-7-amines” (priority 2001, dated 2007).

As a reminder, the logP is the decadic logarithm of the partition coefficient of the neutral form, usually between octanol and water. A low value points to a more hydrophilic compound. `Cc1nc2nc(Cl)c(-c3c(F)cc(F)cc3F)c(N(C)C)n2n1` [compound 86] yielded a log partition coefficient (logP) under setting [1] of 2.49.

`Cc1nc2nc(Cl)c(-c3ccc(F)cc3F)c(N3CCCCC3C)n2n1` (stereo not drawn) [compound 285]: the lipophilicity (logP) under setting [2] is listed as 3.7.

`Cc1nc2nc(Cl)c(-c3c(F)cc(F)cc3F)c(N3CCCCO3)n2n1` [compound 574]: the logP under setting [1] was found to be 3.07.

On to `CC(C)=NN(CC(C)C)c1c(-c2c(F)cccc2F)c(Cl)nc2nc(C3CC3)nn12` [compound 787], for which the lipophilicity (logP) under setting [1] is reported as 4.21.

Under setting [1], `CC1=CCCN(c2c(-c3c(F)cc(F)cc3F)c(Cl)nc3nc(C)nn23)C1` [compound 85] had a log partition coefficient (logP) of 3.57.

Regarding `Fc1ccc(-c2c(Cl)nc3nc(C(F)(F)F)nn3c2NCC(F)(F)F)c(F)c1` [compound 532], the logP under setting [1] came to 3.58.

Take `Cc1nc2nc(Cl)c(-c3c(F)cccc3F)c(N3CCC4(CC3)OCCO4)n2n1` [compound 309]: the logP under setting [2] turned out to be 2.6.

In turn, `CCN(CC)c1c(-c2ccc(F)cc2Cl)c(Cl)nc2nc(C3CC3)nn12` [compound 632] had a lipophilicity (logP) under setting [1] of 4.13.

Take `Cc1nc2nc(Cl)c(-c3ccc(F)cc3F)c(NCC3CC3)n2n1` [compound 200]: the log partition coefficient (logP) under setting [1] was determined as 2.77.

The compound `Cc1nc2nc(Cl)c(-c3c(F)cccc3F)c(NOCc3cccc(C(F)(F)F)c3)n2n1` [compound 433] showed a lipophilicity (logP) under setting [2] of 3.41.

Compound `Cc1nc2nc(Cl)c(-c3c(F)cc(F)cc3F)c(NC(C)C(=O)OC(C)(C)C)n2n1` (stereo not drawn) [compound 126] showed a logP under setting [1] of 3.44.

In turn, `CN(C)c1c(-c2ccccc2Cl)c(Cl)nc2nc(C3CC3)nn12` [compound 36] returned a logP under setting [1] of 3.13.

Turning to `CC1CCN(c2c(-c3ccc(F)cc3Cl)c(Cl)nc3nc(C4CC4)nn23)CC1` [compound 618], the logP under setting [1] was determined as 4.82.

For the compound `Cc1nc2nc(Cl)c(-c3ccc(F)c(Cl)c3)c(NC(C)C(F)(F)F)n2n1` (stereo not drawn) [compound 97], the lipophilicity (logP) under setting [1] is recorded as 3.32.

`CC(C)CNc1c(-c2ccccc2Cl)c(Cl)nc2nc(C3CC3)nn12` [compound 492]: the logP under setting [2] is 3.76.

For the compound `C=C(C)CN(CC)c1c(-c2c(F)cccc2Cl)c(Cl)nc2nc(C3CC3)nn12` [compound 449], the log partition coefficient (logP) under setting [2] was 4.61.

As for `Cc1nc2nc(Cl)c(-c3c(F)cc(F)cc3F)c(N3CCC(O)C3)n2n1` (stereo not drawn) [compound 98], the lipophilicity (logP) under setting [1] is recorded as 1.85.

In the case of `CN(CCC#N)c1c(-c2ccc(F)cc2F)c(Cl)nc2nc(C(F)(F)F)nn12` [compound 542], the logP under setting [1] turned out to be 3.19.

Take `Cc1nc2nc(Cl)c(-c3c(F)cc(F)cc3F)c(NCC(C)(C)C)n2n1` [compound 146]: the logP under setting [1] was found to be 3.5.

For the compound `COCCN(C)c1c(-c2c(F)cccc2Cl)c(Cl)nc2nc(C3CC3)nn12` [compound 699], the logP under setting [1] is given as 3.3.

For `CC(C)(C)CNc1c(-c2ccc(F)cc2Cl)c(Cl)nc2nc(C3CC3)nn12` [compound 622], the lipophilicity (logP) under setting [1] is on record as 4.37.

As to `Cc1cccc(Nc2c(-c3ccc(F)cc3F)c(Cl)nc3nc(C4CC4)nn23)c1` [compound 737], the lipophilicity (logP) under setting [1] came to 3.61.

Turning to `Cc1nc2nc(Cl)c(-c3c(F)cc(F)cc3F)c(N3CCSCC3)n2n1` [compound 66], the logP under setting [1] was 3.09.

The compound `COCCN(C)c1c(-c2ccc(F)cc2F)c(Cl)nc2nc(C(F)(F)F)nn12` [compound 545] came in with a logP under setting [1] of 3.73.

For `Clc1ccccc1-c1c(Cl)nc2nc(C3CC3)nn2c1N1CCCCN1` [compound 488], the lipophilicity (logP) under setting [2] came out at 3.39.

For the compound `Fc1cccc(Cl)c1-c1c(Cl)nc2nc(C3CC3)nn2c1NCC(F)(F)F` [compound 481], under setting [2], the logP was 3.19.

`CCCCNc1c(-c2c(F)cccc2F)c(Cl)nc2nc(C)nn12` [compound 560] yielded a lipophilicity (logP) under setting [1] of 2.89.

As to `CC(C)CN(C)c1c(-c2ccc(F)cc2F)c(Cl)nc2nc(C(F)(F)F)nn12` [compound 544], the lipophilicity (logP) under setting [1] is 4.54.

Under setting [2], `C=CCN(CC)c1c(-c2c(F)cccc2Cl)c(Cl)nc2nc(C)nn12` [compound 267] showed a logP of 3.59.

On to `Fc1ccc(-c2c(Cl)nc3nc(C(F)(F)F)nn3c2N2CCCCC2)c(F)c1` [compound 809], for which the lipophilicity (logP) under setting [1] turned out to be 4.45.

As to `Cc1nc2nc(Cl)c(-c3c(F)cccc3F)c(N3CCCc4ccccc43)n2n1` [compound 446], the logP under setting [2] is on record as 3.34.

Under setting [1], `CC1CCCCN1c1c(-c2c(F)cccc2Cl)c(Cl)nc2nc(C3CC3)nn12` (stereo not drawn) [compound 705] registered a lipophilicity (logP) of 4.54.

For the compound `Cc1nc2nc(Cl)c(-c3c(F)cccc3Cl)c(N(N)CC(C)C)n2n1` [compound 130], under setting [1], the log partition coefficient (logP) is 3.12.

On to `Cc1nc2nc(Cl)c(-c3c(F)cc(F)cc3F)c(N3OCCC3C)n2n1` (stereo not drawn) [compound 585], for which the logP under setting [1] worked out at 2.93.

Consider `CCN(CC1CCCO1)c1c(-c2c(F)cccc2F)c(Cl)nc2nc(C)nn12` (stereo not drawn) [compound 341], for which the lipophilicity (logP) under setting [2] came to 3.

`CCCNc1c(-c2ccc(F)cc2F)c(Cl)nc2nc(C3CC3)nn12` [compound 649] displayed a lipophilicity (logP) under setting [1] of 3.2.

`Cc1nc2nc(Cl)c(-c3ccc(F)cc3F)c(N3CCC(C)(C)CC3)n2n1` [compound 288] yielded a logP under setting [2] of 4.01.

As to `C=CCN(C)c1c(-c2c(F)cccc2F)c(Cl)nc2nc(C)nn12` [compound 333], the logP under setting [2] came out at 2.95.

As for `CCCN(CC1CCCCO1)c1c(-c2ccc(F)cc2F)c(Cl)nc2nc(C3CC3)nn12` (stereo not drawn) [compound 599], under setting [1], the log partition coefficient (logP) came to 4.71.

Regarding `Cc1nc2nc(Cl)c(-c3c(F)cccc3F)c(NC3CC3)n2n1` [compound 178], under setting [1], the logP is 2.28.

`Cc1nc2nc(Cl)c(-c3ccccc3Cl)c(N(C)CC3OCCO3)n2n1` [compound 219] registered a lipophilicity (logP) under setting [1] of 2.62.

With `CC(C)CNc1c(-c2c(F)cccc2F)c(Cl)nc2nc(C3CC3)nn12` [compound 744], the lipophilicity (logP) under setting [1] was 3.44.

On to `CN(CC1OCCO1)c1c(-c2ccc(F)cc2F)c(Cl)nc2nc(C3CC3)nn12` [compound 663], for which, under setting [1], the logP worked out at 3.1.

Under setting [1], `C=C(C)CN(C)c1c(-c2ccc(F)cc2F)c(Cl)nc2nc(C(F)(F)F)nn12` [compound 546] had a logP of 4.44.

Regarding `CC(=O)NC1CCN(c2c(-c3c(F)cccc3F)c(Cl)nc3nc(C)nn23)C1` (stereo not drawn) [compound 305], the log partition coefficient (logP) under setting [2] worked out at 1.64.

Compound `Cc1nc2nc(Cl)c(-c3ccccc3Cl)c(N(C)CC(C)C)n2n1` [compound 221] showed a logP under setting [1] of 3.65.

In turn, `CC(C)(C)Nc1c(-c2ccc(F)cc2F)c(Cl)nc2nc(C(F)(F)F)nn12` [compound 535] came in with a logP under setting [1] of 4.19.

In turn, `CCC1=CCN(c2c(-c3c(F)cccc3F)c(Cl)nc3nc(C)nn23)CC1` [compound 316] had a lipophilicity (logP) under setting [2] of 3.84.

In the case of `CC1CCN(c2c(-c3c(F)cccc3Cl)c(Cl)nc3nc(C4CC4)nn23)CC1` [compound 706], the logP under setting [1] was 4.59.

`Cc1nc2nc(Cl)c(-c3c(F)cc(F)cc3F)c(N3Cc4ccccc4CO3)n2n1` [compound 168] had a logP under setting [1] of 3.73.

The compound `C=CCN(C)c1c(-c2ccc(F)cc2F)c(Cl)nc2nc(C3CC3)nn12` [compound 664] came in with a logP under setting [1] of 3.61.

`OC1CCCN(c2c(-c3ccc(F)cc3F)c(Cl)nc3nc(C(F)(F)F)nn23)C1` (stereo not drawn) [compound 799] registered a logP under setting [1] of 3.07.

On to `Cc1nc2nc(Cl)c(-c3ccccc3Cl)c(NCC3CC3)n2n1` [compound 216], for which, under setting [1], the logP stood at 2.85.

Compound `CC(C)Nc1c(-c2ccc(F)cc2Cl)c(Cl)nc2nc(C3CC3)nn12` [compound 503] yielded a logP under setting [2] of 3.5.
